According to patent US20220017778A1, “Methods of Treating Inorganic Surfaces” (ZYDEX INC., priority 2018, published 2022):

Assay: Solubility / dispersibility of the product in water
Format: physicochemical
Details: general statement in the description
Description: A two liter, three necked flask equipped with a condenser, stirrer, thermometer, and distillation head was charged with (i) 136 grams of methyltrimethoxysilane, (ii) 186 grams of monoehtylene glycol, and (iii) 0.6 grams of tetra isopropyltitanate was added into the mixture to facilitate a transesterification reaction to provide a non-ionic water soluble organosilane. This mixture was heated to 120° C. for two hours, during which 92 grams of methanol were recovered after which the reaction was deemed complete.
A two liter, three necked flask equipped with a condenser, stirrer, thermometer, and distillation head was charged with (i) 164 grams of methyltrimethoxysilane, (ii) 186 grams of monoehtylene glycol, and (iii) 0.6 grams of tetra isopropyltitanate was added into the mixture to facilitate a transesterification reaction to provide a non-ionic water soluble organosilane. This mixture was heated to 120° C. for two hours, during which 95 grams of methanol were recovered after which the reaction was deemed complete.

CO[Si](C)(OC)OC [methyltrimethoxysilane (MTMS), methyltrimethoxysilane]
water solubility, in words (description): insoluble in water
